Measured values as given in US8703438B2, “Ligand binding stabilization method for drug target identification” (The Regents of the University of California, priority 2008, dated 2014).

Columns and labels:
Type in all cases: binding
[1] = biological target: T1, proteins of human Jurkat cell lysate (EF-1alpha isoforms and others) (Homo sapiens, UniProt P00558); assay: DARTS with DB-treated intact Jurkat cells, thermolysin, Coomassie staining and mass spectrometry of protected band; details: DB vs DMSO, mass spectrometry
T1 construct: endogenous in cells; host or cells: Jurkat cells
T1 sequence (P00558 1-417): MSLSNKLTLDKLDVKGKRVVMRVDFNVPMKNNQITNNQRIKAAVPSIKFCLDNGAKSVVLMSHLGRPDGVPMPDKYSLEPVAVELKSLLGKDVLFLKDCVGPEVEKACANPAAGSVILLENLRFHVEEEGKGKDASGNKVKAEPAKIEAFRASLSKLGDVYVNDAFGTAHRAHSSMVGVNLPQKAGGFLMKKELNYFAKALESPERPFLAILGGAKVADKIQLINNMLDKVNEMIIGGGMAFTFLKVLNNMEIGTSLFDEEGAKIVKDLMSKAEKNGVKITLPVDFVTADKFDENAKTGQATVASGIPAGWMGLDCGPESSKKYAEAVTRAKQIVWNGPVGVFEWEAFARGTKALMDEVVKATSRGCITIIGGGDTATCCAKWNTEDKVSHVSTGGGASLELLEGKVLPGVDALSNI
Description: (§1) The experiments above established that DARTS can efficiently test, screen, or verify drug-protein interactions when the protein is available in relatively pure form. For DARTS to be generally useful as a discovery tool, however, applicability to complex protein mixtures (such as cell lysates) would be desirable. […] Given that EF-1 alpha is a highly abundant protein, we first tested whether in the DARTS protocol DB would protect EF-1 alpha from proteolysis and result in a detectable difference.
(§2) For FIGS. 3A and 3C, intact Jurkat cells were treated with DB from 100 pg/mL to 1 μg/mL or DMSO control for 30 min. Cells were lysed (without washing, in these experiments) with M-PER (Pierce) supplemented with protease and phosphatase inhibitors. After centrifugation (14,000 rpm, 15 min), lysates were diluted to the same final volume and protein concentration with M-PER and proteolysed in reaction buffer [50 mM Tris-HCl pH 8.0, 50 mM NaCl, 10 mM CaCl2]. All steps were performed on ice or at 4° C. to help prevent premature protein degradation. Each sample was then quickly warmed to room temperature and proteolysed with 1 μg thermolysin for every 15 μg lysate for 10 min. To stop proteolysis, 0.5 M EDTA (pH 8.0) was added to each sample at a 1:10 ratio, mixed well, and placed on ice.
(§3) Gel bands were cut out and prepared for mass spec analysis with trypsin digestion as described in SI. Peptides were analyzed by LC/MS/MS on a Thermo LTQ-Orbitrap mass spectrometer with an Eksigent LC pump. For quantitative comparison of protein and peptide abundances, MS spectra were analyzed using the differential workflow of Rosetta Elucidator (Rosetta Inpharmatics) (54). Annotation was performed using PeptideTeller and ProteinTeller (see SI).
(§4) The result could indicate lower affinity binding of DB to PGK1, or secondary effects on protein abundance because in this experiment the cells were treated with drug in vivo.
(§5) Proteins were initially identified by searching the spectra against the human International Protein Index database (version 3.46) and the S. cerevisiae Swissprot database (May 2008) using the SEQUEST algorithm (Eng et al. (1994) J Am Soc Mass Spectrom 5: 976-989) integrated into the Bioworks software package. Each peptide met the following criteria: XCorr ≧2 (+1), ≧3 (+2), ≧4 (+3), ≧5 (+4), and DeltaCN>0.1. For quantitative comparison of protein and peptide abundances, MS spectra were analyzed using the differential workflow of the Rosetta Elucidator software system (Rosetta Inpharmatics) (Neubert et al. (2008) J Proteome Res 7: 2270-2279). Annotation was performed using PeptideTeller and ProteinTeller with a minimum probability of 0.99 and predicted error of 0.0. Protein ratio data were generated with a P-value cutoff of 0.01 for all proteins with a peptide number >1. Intensity scaling was performed against the mean of feature signals, with 10% of outliers removed from the baseline dataset. Similar results were obtained in analysis without intensity scaling (FIG. 9A).

[2] = biological target: T2, proteins of human Jurkat cell lysate (EF-1alpha isoforms and others) (Homo sapiens, UniProt P06733); assay: as above; details: DB vs DMSO, mass spectrometry
T2 construct: endogenous in cells; host or cells: Jurkat cells
Description: as §1, §2, §3, §4, §5

[3] = biological target: T3, proteins of human Jurkat cell lysate (EF-1alpha isoforms and others) (Homo sapiens, UniProt P68104); assay: as above; details: DB vs DMSO, mass spectrometry
T3 construct: endogenous in cells; host or cells: Jurkat cells
Description: as §1, §2, §3, §4, §5

[4] = biological target: T4, proteins of human Jurkat cell lysate (EF-1alpha isoforms and others) (Homo sapiens, UniProt Q05639); assay: as above; details: DB vs DMSO, mass spectrometry
T4 construct: endogenous in cells; host or cells: Jurkat cells
Description: as §1, §2, §3, §4, §5

[5] = biological target: T5, proteins of human Jurkat cell lysate (EF-1alpha isoforms and others) (Homo sapiens, UniProt Q13838); assay: as above; details: DB vs DMSO, mass spectrometry
T5 construct: endogenous in cells; host or cells: Jurkat cells
Description: as §1, §2, §3, §4, §5

[6] = biological target: T6, proteins of human Jurkat cell lysate (EF-1alpha isoforms and others) (Homo sapiens, UniProt Q9P2R7); assay: as above; details: DB vs DMSO, mass spectrometry
T6 construct: endogenous in cells; host or cells: Jurkat cells
T6 sequence (Q9P2R7 53-463): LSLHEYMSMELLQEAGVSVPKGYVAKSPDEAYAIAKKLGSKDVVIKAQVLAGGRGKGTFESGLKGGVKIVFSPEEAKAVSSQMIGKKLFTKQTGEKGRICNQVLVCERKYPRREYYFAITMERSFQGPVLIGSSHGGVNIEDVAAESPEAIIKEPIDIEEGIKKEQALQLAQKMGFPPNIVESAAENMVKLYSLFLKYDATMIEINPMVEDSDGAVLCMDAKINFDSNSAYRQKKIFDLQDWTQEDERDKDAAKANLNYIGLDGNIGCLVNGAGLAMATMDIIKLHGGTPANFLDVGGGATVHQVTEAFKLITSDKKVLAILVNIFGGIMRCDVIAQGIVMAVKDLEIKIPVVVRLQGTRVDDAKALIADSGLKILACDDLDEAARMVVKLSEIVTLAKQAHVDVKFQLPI
Description: as §1, §2, §3, §4, §5

[7] = tested on: proteins of human Jurkat cell lysate (EF-1alpha isoforms and others); assay: as above; details: DB-treated Jurkat cells, 1 μg/mL, FIG. 3A
Description: as §1, §2, §3, §4, §5

EF-1 alpha = biological target: T7, EF-1 alpha (Homo sapiens, UniProt P68104); assay: DARTS with DB, detection of EF-1 alpha by immunoblotting
T7 construct: endogenous in cells; host or cells: Jurkat cells
Experimental: FIG. 7 illustrates DARTS with Didemnin B using whole-cell lysates. Lysates from untreated human Jurkat cells were incubated with DMSO control or DB (1 ng/mL, 10 ng/mL, 100 ng/mL, 300 ng/mL, and 1 μg/mL) for 30 min at room temperature. Each sample was then split into two, which underwent thermolysin proteolysis, or mock digestion, respectively, followed by western blot analysis. Protection can be seen starting at 100 ng/mL.
Examination of the protected band and the matching gel region of the control lane by mass spectrometry confirmed that EF-1 alpha was the primary protein present at higher abundance in the DB-treated sample (FIG. 3B). […] The generality of this approach is further supported by experiments using diverse protein-drug pairs ranging from nano- to micro-molar: mTOR-rapamycin, COX-2celecoxib, and SCF E3 ubiquitin ligase-inhibitor (FIG. 8). Furthermore, DARTS is not enzyme specific, and much higher overall digestion efficiency can be achieved using other proteases while retaining protection of the target protein (see Example 2 and FIG. 9).
For FIGS. 3A and 3C, intact Jurkat cells were treated with DB from 100 pg/mL to 1 μg/mL or DMSO control for 30 min. […]
For FIG. 7, human Jurkat cells were lysed in M-PER (Pierce) supplemented with protease and phosphatase inhibitors. Protein concentration was determined by BCA Protein Assay kit (Pierce). […]

T7 sequence (P68104 2-462): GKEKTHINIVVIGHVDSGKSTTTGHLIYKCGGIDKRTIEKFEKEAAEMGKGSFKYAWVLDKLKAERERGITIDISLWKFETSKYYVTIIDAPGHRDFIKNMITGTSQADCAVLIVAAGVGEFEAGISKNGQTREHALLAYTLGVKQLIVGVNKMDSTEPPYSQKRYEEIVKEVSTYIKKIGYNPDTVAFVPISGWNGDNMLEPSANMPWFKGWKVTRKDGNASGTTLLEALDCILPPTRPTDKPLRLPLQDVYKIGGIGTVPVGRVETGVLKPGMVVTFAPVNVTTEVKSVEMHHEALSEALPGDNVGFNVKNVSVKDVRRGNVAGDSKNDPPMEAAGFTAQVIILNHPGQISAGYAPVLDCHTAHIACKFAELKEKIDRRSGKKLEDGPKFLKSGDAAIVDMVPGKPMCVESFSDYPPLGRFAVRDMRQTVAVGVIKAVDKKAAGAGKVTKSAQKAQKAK
T2 sequence (P06733 whole entry, canonical isoform): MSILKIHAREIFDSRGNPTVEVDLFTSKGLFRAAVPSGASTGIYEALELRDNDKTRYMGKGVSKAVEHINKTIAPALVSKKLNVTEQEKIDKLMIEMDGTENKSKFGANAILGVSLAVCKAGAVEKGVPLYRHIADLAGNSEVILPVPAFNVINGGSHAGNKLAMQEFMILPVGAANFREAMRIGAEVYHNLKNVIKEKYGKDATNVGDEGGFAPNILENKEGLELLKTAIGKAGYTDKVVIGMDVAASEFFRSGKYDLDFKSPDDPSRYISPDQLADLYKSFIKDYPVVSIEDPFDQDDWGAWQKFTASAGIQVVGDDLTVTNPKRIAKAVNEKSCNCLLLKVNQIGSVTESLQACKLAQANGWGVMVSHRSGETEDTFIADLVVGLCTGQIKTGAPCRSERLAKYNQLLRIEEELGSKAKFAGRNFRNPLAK
T4 sequence (Q05639 whole entry, canonical isoform): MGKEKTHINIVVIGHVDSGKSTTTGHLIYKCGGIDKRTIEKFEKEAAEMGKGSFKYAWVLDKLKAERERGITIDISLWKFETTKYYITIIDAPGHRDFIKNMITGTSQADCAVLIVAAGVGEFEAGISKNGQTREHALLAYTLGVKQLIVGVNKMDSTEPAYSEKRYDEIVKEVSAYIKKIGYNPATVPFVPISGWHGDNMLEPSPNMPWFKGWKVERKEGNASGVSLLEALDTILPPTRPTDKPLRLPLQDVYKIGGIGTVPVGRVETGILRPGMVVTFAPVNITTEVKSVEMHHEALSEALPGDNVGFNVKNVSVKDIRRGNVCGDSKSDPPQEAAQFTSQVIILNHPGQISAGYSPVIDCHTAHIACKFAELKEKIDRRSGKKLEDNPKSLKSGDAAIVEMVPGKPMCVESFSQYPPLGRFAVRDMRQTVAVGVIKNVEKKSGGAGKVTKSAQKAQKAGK
T3 sequence (P68104 whole entry, canonical isoform): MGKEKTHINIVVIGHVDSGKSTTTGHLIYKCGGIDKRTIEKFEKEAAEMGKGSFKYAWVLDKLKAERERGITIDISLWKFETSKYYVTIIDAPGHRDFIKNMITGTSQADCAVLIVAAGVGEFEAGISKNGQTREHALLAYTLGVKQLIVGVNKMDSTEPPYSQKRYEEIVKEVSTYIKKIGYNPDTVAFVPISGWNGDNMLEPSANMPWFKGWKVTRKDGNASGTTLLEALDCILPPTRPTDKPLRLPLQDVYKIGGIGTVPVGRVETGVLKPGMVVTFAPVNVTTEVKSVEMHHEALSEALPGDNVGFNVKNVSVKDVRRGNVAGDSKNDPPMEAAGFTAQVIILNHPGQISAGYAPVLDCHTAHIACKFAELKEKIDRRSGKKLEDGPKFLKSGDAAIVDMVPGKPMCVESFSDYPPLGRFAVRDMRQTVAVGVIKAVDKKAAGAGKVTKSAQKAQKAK
T5 sequence (Q13838 whole entry, canonical isoform): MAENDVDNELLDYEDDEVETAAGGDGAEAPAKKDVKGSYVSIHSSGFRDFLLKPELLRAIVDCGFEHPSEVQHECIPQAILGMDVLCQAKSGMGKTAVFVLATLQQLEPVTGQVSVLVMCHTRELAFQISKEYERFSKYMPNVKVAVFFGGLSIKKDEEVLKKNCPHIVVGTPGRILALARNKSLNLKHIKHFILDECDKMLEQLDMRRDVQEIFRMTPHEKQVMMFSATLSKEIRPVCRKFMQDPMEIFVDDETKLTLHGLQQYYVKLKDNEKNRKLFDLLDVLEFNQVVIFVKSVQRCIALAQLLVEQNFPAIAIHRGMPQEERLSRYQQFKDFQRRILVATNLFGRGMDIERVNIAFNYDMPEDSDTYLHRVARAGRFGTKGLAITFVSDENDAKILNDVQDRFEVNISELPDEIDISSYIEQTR

SMILES: CC[C@H](C)[C@H]1NC(=O)[C@@H](NC(=O)[C@@H](CC(C)C)N(C)C(=O)[C@@H]2CCCN2C(=O)C(C)O)[C@@H](C)OC(=O)[C@H](Cc2ccc(OC)cc2)N(C)C(=O)[C@@H]2CCCN2C(=O)[C@H](CC(C)C)NC(=O)[C@@H](C)C(=O)[C@H](C(C)C)OC(=O)C[C@@H]1O (stereo partly drawn) [DB, didemnin B]
- enrichment of PGK1 in protected band [1]: 2.4 fold
- change of ENO1 in protected band (depleted) [2]: −1.8 fold
- enrichment of EEF1A1 in protected band [3]: 18.7 fold
- enrichment of EEF1A2 in protected band [4]: 21.7 fold
- enrichment of BAT1 in protected band [5]: 7.5 fold
- enrichment of SUCLA2 in protected band [6]: 11.7 fold
- protected band on Coomassie-stained gel after thermolysin [7]: strong protected band
- concentration at which protection starts (EF-1 alpha; Jurkat lysates incubated in vitro 30 min, thermolysin, western blot, FIG. 7): 100 ng/mL
- proteolytic protection of EF-1 alpha by immunoblotting (EF-1 alpha; intact cells treated and lysates incubated in vitro): concentration dependent proteolytic protection
